# Assay results published in patent publication US20260284189A1, “TREATMENT OF NON-SMALL CELL LUNG CANCER” (ASTRAZENECA AB, priority 2023, published 2026).
# What was measured:
# [1] = tested on: resectable non-small cell lung cancer (R-NSCLC); experiment: AEGEAN phase III: pathological response (pCR, MPR) by central pathology review; format: in vivo, human; conditions: final analysis
# Excerpt: As used herein, the terms “pathological complete response” or “pathological CR” or “pCR” refer to the proportion of patients who have 0% residual viable tumor cells within all resected tissue (including primary lung lesion and lymph nodes) following neoadjuvant treatment as assessed by central pathology laboratory. […] Central pathology assessment of pCR will be performed according to the recommended methods and definitions described by IASLC 2020 (Travis et al. “IASLC Multidisciplinary Recommendations for Pathologic Assessment of Lung Cancer Resection Specimens After Neoadjuvant Therapy.” J Thorac Oncol. 2020 May; 15(5):709-740. doi:10.1016/j.jtho.2020.01.005). The analysis can be performed using a Cochran-Mantel-Haenszel (CMH) test, stratified by disease stage (Stage II versus Stage III) and PD-L1 expression status (<1% versus ≥1%). The effect of treatment will be estimated by the difference in proportions between treatment groups, together with their corresponding CI and p-value.
# As used herein, the terms “major pathological response” and “mPR” refer to the proportion of patients with 10% or less residual viable tumor tissue in lung primary tumor after neoadjuvant treatment at the time of resection as assessed per central pathology laboratory. […]
# Primary tumors and sampled lymph nodes were assessed for pathological response to neoadjuvant treatment by central pathology review using recommendations from the IASLC. […] 2020 May; 15(5):709-740. doi: 10.1016/j.jtho.2020.01.005; Hellmann et al. “Pathological response after neoadjuvant chemotherapy in resectable non-small-cell lung cancers: proposal for the use of major pathological response as a surrogate endpoint.” Lancet Oncol 2014; 15(1):e42-50; Cottrell et al. “Pathologic features of response to neoadjuvant anti-PD-1 in resected non-small-cell lung carcinoma: a proposal for quantitative immune-related pathologic response criteria (irPRC).” Ann Oncol 2018; 29(8):1853-1860). […]
# For pathological endpoints, response rates were compared between treatment arms using a stratified Cochran-Mantel-Haenszel test; the treatment effect was estimated by the differences in response rates, with their corresponding 95% confidence intervals (CIs) calculated by the stratified Miettinen and Nurminen method. EFS was compared between the treatment arms using a stratified log-rank test; the treatment effect was estimated by HRs and 95% CIs calculated with stratified Cox-proportional-hazards models. […] For pCR, the differences in response rates were calculated for each subgroup, with corresponding 95% CIs estimated using an unstratified Miettinen and Nurminen method; for EFS, HRs and 95% CIs were calculated for each subgroup using a Cox-proportional-hazards model with treatment as the only covariate.
# [2] = tested on: resectable non-small cell lung cancer (R-NSCLC); experiment: AEGEAN phase III: objective response prior to surgery, BICR (RECIST v1.1); format: in vivo, human; conditions: mITT N = 366
# Experimental: Tumors were evaluated per RECIST v1.1 using imaging collected at the following timepoints: baseline (≤28 days before randomization); after completing neoadjuvant treatment and before surgery; 5 weeks (±2 weeks) after surgery and before starting adjuvant treatment; every 12 weeks (±1 week) until Week 48 after surgery; every 24 weeks (±2 weeks) until Week 192 (i.e., ~4 years post-surgery); and every 48 weeks (±2 weeks) thereafter until local or distant recurrence, consent withdrawal, or death.
# Efficacy assessments were performed and determined by pathology review or a BICR using RECIST 1.1 assessment, as applicable, including EFS (mITT and PD-L1 TC≥1% analysis set), pCR (mITT and PD-L1 TC≥1% analysis set), mPR (mITT and PD-L1 TC≥1% analysis set), DFS (modified resected set and PD-L1 TC≥1% resected set), and OS (mITT and PD-L1 TC≥1% analysis set). The EFS event of PD that precludes surgery or PD discovered during surgery that prevents completion of surgery will be determined by the Investigator.
substance,measurement,setting,value
Durvalumab: antibody that selectively binds PD-L1 and blocks binding of PD-L1 to PD-1 and CD80; arm given with platinum-based chemotherapy before surgery,"MPR, proportion of patients","[1]; mITT N=366, central review",33.3%
same,"pCR, proportion of patients","[1]; mITT N=366, central review",17.2%
same,"MPR difference in proportions, durvalumab arm versus placebo arm",[1]; mITT N=740,21.0
same,"pCR difference in proportions, durvalumab arm versus placebo arm",[1]; mITT N=740,13.0%
same,Complete response: number of patients,[2],4
same,Complete response: patients,[2],(1.1) %
same,Not evaluable (objective response): number of patients,[2],25
same,Not evaluable (objective response): patients,[2],(6.8) %
same,Objective response rate,[2],(56.3) %
same,Objective response rate: number of patients,[2],206
same,Partial response: number of patients,[2],202
same,Partial response: patients,[2],(55.2) %
same,Progression: number of patients,[2],11
same,Progression: patients,[2],(3.0) %
same,Stable disease: number of patients,[2],124
same,Stable disease: patients,[2],(33.9) %
